The source of these data is US8501746B2, “Organic compounds” (Xenon Pharmaceuticals Inc., priority 2006, dated 2013).

A value given as a limit tells only on which side of the number the result lay.

Tested on in the first data set: not given
Experiment: not given
Conditions: not given
For `Cc1cc(-n2ccc(O)cc2=O)sc1C(=O)NCc1cccnc1` [Example 7.6, 5-(4-Hydroxy-2-oxopyridin-1(2H)-yl)-3-methyl-N-(pyridin-3-ylmethyl)thiophene-2-carboxamide], the melting point was 110 °C (dec.). On the same count and under the same terms, under `Cc1nc(-n2ccc3c(O)cccc3c2=O)sc1C(=O)NCc1ccccc1` [Example 7.1, N-Benzyl-2-(5-hydroxy-1-oxoisoquinolin-2(1H)-yl)-4-methylthiazole-5-carboxamide] stands 218 to 221 °C.

`Cc1nc(-n2cccc(C(F)(F)F)c2=O)sc1C(=O)NCc1ccccc1` [Example 3.5, N-Benzyl-4-methyl-2-(2-oxo-3-(trifluoromethyl)pyridin-1(2H)-yl)thiazole-5-carboxamide] showed a melting point of 203 to 204 °C. In turn, `COc1ccn(-c2nc(C)c(C(=O)NCc3ccccc3)s2)c(=O)c1` [Example 1.2, N-Benzyl-2-(4-methoxy-2-oxopyridin-1(2H)-yl)-4-methylthiazole-5-carboxamide] returned a melting point of 205 to 208 °C. Still for that read-out and setting: under `Cc1nc(-n2ccc(OCc3ccccc3)cc2=O)sc1C(=O)NCc1ccc(F)c(F)c1` [Example 3.17, 2-(4-(Benzyloxy)-2-oxopyridin-1(2H)-yl)-N-(3,4-difluorobenzyl)-4-methylthiazole-5-carboxamide] stands 225 to 227 °C; under `Cc1nc(-n2ccc(OCC3CCCC3)cc2=O)sc1C(=O)NCc1ccccc1` [Example 9.10, N-Benzyl-2-(4-(cyclopentylmethoxy)-2-oxopyridin-1(2H)-yl)-4-methylthiazole-5-carboxamide], 196 to 198 °C. The same measure, in the same setting: with `Cc1nc(-n2ccc(NCc3ccccc3)cc2=O)sc1C(=O)NCc1ccccc1` [Example 5, N-benzyl-2-(4-(benzylamino)-2-oxopyridin-1(2H)-yl)-4-methylthiazole-5-carboxamide] the figure was 253 to 255 °C; with `Cc1cc(-n2ccc(OCc3ccccc3)cc2=O)sc1C(=O)NCc1ccccc1` [Example 8.1, N-Benzyl-5-(4-(benzyloxy)-2-oxopyridin-1(2H)-yl)-3-methylthiophene-2-carboxamide], 153 to 154 °C. Still for that read-out and setting: with `Cc1cc(-n2ccc(O)cc2=O)sc1C(=O)NCc1ccccc1` [Example 7.4, N-Benzyl-5-(4-hydroxy-2-oxopyridin-1(2H)-yl)-3-methylthiophene-2-carboxamide] the figure was 98 °C (dec.). Consider `COc1ccn(-c2nc(C)c(C(=O)NCc3cccnc3)s2)c(=O)c1` [Example 1.11, 2-(4-Methoxy-2-oxopyridin-1(2H)-yl)-4-methyl-N-(pyridin-3-ylmethyl)thiazole-5-carboxamide], for which the melting point is 200 to 202 °C. Consider `Cc1cc(-n2ccc(OCCC3CC3)cc2=O)sc1C(=O)NCc1ccccc1` [Example 9, N-Benzyl-5-(4-(2-cyclopropylethoxy)-2-oxopyridin-1(2H)-yl)-3-methylthiophene-2-carboxamide], for which the melting point lay within 134 to 136 °C. Same read-out and setting: under `Cc1nc(-n2ccc(N)cc2=O)sc1C(=O)NCc1ccccc1` [Example 3, 2-(4-Amino-2-oxopyridin-1(2H)-yl)-N-benzyl-4-methylthiazole-5-carboxamide] stands 171 to 172 °C; under `Cc1nc(-n2ccc(OCc3ccc(F)cc3)cc2=O)sc1C(=O)NCc1cccnc1` [Example 1.13, 2-(4-(4-Fluorobenzyloxy)-2-oxopyridin-1(2H)-yl)-4-methyl-N-(pyridin-3-ylmethyl)thiazole-5-carboxamide], 231 to 233 °C.

Take `Cc1nc(-n2ccc(O)cc2=O)sc1C(=O)NCCc1ccc(F)cc1` [Example 1.18, N-(4-Fluorophenethyl)-2-(4-hydroxy-2-oxopyridin-1(2H)-yl)-4-methylthiazole-5-carboxamide]: the melting point fell in the range of 225 to 227 °C. `Cc1nc(-n2ccc(OCc3ccc(F)cc3)cc2=O)sc1C(=O)O` [Example 13.7, 2-(4-(4-Fluorobenzyloxy)-2-oxopyridin-1(2H)-yl)-4-methylthiazole-5-carboxylic acid]: the melting point is greater than 300 °C. The same measure, in the same setting: with `Cc1nc(-n2ccc(OCc3ccccc3)cc2=O)sc1C(=O)NCc1ccccc1` [Example 2, N-Benzyl-2-(4-(benzyloxy)-2-oxopyridin-1(2H)-yl)-4-methylthiazole-5-carboxamide] the figure was 219 to 220 °C; with `Cc1nc(-n2ccnc(C)c2=O)sc1C(=O)NCc1ccccc1` [Example 3.1, N-Benzyl-4-methyl-2-(3-methyl-2-oxopyrazin-1(2H)-yl)thiazole-5-carboxamide], 186 to 187 °C.

`Cc1nc(-n2ccc(OCc3ccc(C(F)(F)F)cc3)cc2=O)sc1C(=O)NCc1ccccc1` [Example 9.8, N-Benzyl-4-methyl-2-(2-oxo-4-(4-(trifluoromethyl)benzyloxy)pyridin-1(2H)-yl)thiazole-5-carboxamide] displayed a melting point of 278 to 280 °C. The same measure, in the same setting: with `Cc1nc(-n2ccc(OCc3ccccc3)cc2=O)sc1C(=O)NCc1cccnc1` [Example 3.25, 2-(4-(Benzyloxy)-2-oxopyridin-1(2H)-yl)-4-methyl-N-(pyridin-3-ylmethyl)thiazole-5-carboxamide] the figure was 208 to 209 °C; with `Cc1nc(-n2ccc(OCc3ccc(F)cc3)cc2=O)sc1C(=O)NCc1ccc(F)cc1` [Example 1.14, N-(4-Fluorobenzyl)-2-(4-(4-fluorobenzyloxy)-2-oxopyridin-1(2H)-yl)-4-methylthiazole-5-carboxamide], 249 to 251 °C; with `CCOC(=O)c1sc(-n2ccc(OCc3ccc(F)cc3)cc2=O)nc1C` [Example 17.1, Ethyl 2-(4-(4-Fluorobenzyloxy)-2-oxopyridin-1(2H)-yl)-4-methylthiazole-5-carboxylate], 214 to 217 °C. On the same count and under the same terms, with `CCNC(=O)c1sc(-n2ccc(O)cc2=O)cc1C` [Example 7.9, N-Ethyl-5-(4-hydroxy-2-oxopyridin-1(2H)-yl)-3-methylthiophene-2-carboxamide] the figure was 183 to 184 °C; with `Cc1nc(-n2cccc(C(=O)Nc3ccccc3)c2=O)sc1C(=O)NCc1ccccc1` [Example 3.14, N-Benzyl-4-methyl-2-(2-oxo-3-(phenylcarbamoyl)pyridin-1(2H)-yl)thiazole-5-carboxamide], 225 to 227 °C; with `Cc1nc(-n2ccc(OCc3ccc(C(F)(F)F)o3)cc2=O)sc1C(=O)NCc1ccccc1` [Example 9.7], 214 to 216 °C.

On to `Cc1ccn(-c2nc(C)c(C(=O)NCc3ccccc3)s2)c(=O)c1` [Example 20, N-Benzyl-4-methyl-2-(4-methyl-2-oxopyridin-1(2H)-yl)thiazole-5-carboxamide], for which the melting point lay in the range of 145 to 147 °C. In turn, `Cc1nc(-n2cc(Cl)ccc2=O)sc1C(=O)NCc1ccccc1` [Example 3.3, N-Benzyl-2-(5-chloro-2-oxopyridin-1(2H)-yl)-4-methylthiazole-5-carboxamide] registered a melting point of 173 to 174 °C.

In another data set the target is T1, stearoyl-CoA desaturase (SCD1) (Mus musculus, UniProt P13516).
T1 construct: Reactions are started by adding 50 μL of microsomes (1.25 mg/mL); from tissue; host or cells: liver microsomes of male ICR outbred mice on a high-carbohydrate, low-fat diet
T1 sequence (P13516 1-355): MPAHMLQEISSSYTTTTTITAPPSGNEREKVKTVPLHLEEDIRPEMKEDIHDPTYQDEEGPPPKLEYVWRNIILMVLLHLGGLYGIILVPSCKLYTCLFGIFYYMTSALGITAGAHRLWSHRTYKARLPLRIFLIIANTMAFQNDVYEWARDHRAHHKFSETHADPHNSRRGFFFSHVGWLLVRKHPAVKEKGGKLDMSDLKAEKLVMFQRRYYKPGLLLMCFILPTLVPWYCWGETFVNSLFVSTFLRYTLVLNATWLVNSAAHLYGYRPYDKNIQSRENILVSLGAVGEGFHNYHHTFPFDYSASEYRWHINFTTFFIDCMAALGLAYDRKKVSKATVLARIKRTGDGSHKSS
Put plainly: SCD microsomal assay: release of 3H2O from [9,10-3H]stearoyl-CoA in mouse liver microsomes. Conditions: 15 min incubation, 25° C. Format: biochemical. How it is done: Measuring Stearoyl-CoA Desaturase Inhibition Activity of a Test Compound Using Mouse Liver Microsomes
Livers are immediately rinsed with cold 0.9% NaCl solution, weighed and minced with scissors. All procedures are performed at 4° C. unless specified otherwise. Livers are homogenized in a solution (1/3 w/v) containing 0.25 M sucrose, 62 mM potassium phosphate buffer (pH 7.0), 0.15 M KCl, 15 mM N-acetylcysteine, 5 mM MgCl2, and 0.1 mM EDTA using 4 strokes of a Potter-Elvehjem tissue homogenizer. The homogenate is centrifuged at 10,400×g for 20 min to eliminate mitochondria and cellular debris. The supernatant is filtered through a 3-layer cheesecloth and centrifuged at 105,000×g for 60 min. The microsomal pellet is gently resuspended in the same homogenization solution with a small glass/teflon homogenizer and stored at −70° C. The absence of mitochondrial contamination is enzymatically assessed. The protein concentration is measured using bovine serum albumin as the standard.
Incubation of Mouse Liver Microsomes with Test Compounds:
Desaturase activity is measured as the release of ^3H2O from [9,10-^3H]stearoyl-CoA. Reactions per assay point conditions are as follows: 2 μL 1.5 mM stearoyl-CoA, 0.25 μL 1 mCi/mL ^3H stearoyl CoA, 10 μL 20 mM NADH, 36.75 μL 0.1 M PK buffer (K2HPO4/NaH2PO4, pH 7.2). The test compound or control solution is added in a 1 μL volume. […] The plates are mixed and after 15 min incubation on a heating block (25° C.), the reactions are stopped by the addition of 10 μL 60% PCA. An aliquot of 100 μL is then transferred to a filter plate pretreated with charcoal and the plate centrifuged at 4000 rpm for 1 minute. The flow through containing the ^3H2O released by the SCD1 desaturation reaction is added to scintillation fluid and the radioactivity measured in a Packard TopCount. The data is analysed to identify the IC50 for test compounds and reference compounds.
The activity was defined in terms of % SCD enzyme activity remaining at the desired concentration of the test compound or as the IC50 concentration.
`Cc1cc(-n2ccc(O)cc2=O)sc1C(=O)NCc1cccnc1` [Example 7.6, 5-(4-Hydroxy-2-oxopyridin-1(2H)-yl)-3-methyl-N-(pyridin-3-ylmethyl)thiophene-2-carboxamide] came in with an IC50 of 800 nM. Same read-out and setting: with `Cc1nc(-n2ccc3c(O)cccc3c2=O)sc1C(=O)NCc1ccccc1` [Example 7.1, N-Benzyl-2-(5-hydroxy-1-oxoisoquinolin-2(1H)-yl)-4-methylthiazole-5-carboxamide] the figure was 30 nM; with `Cc1nc(-n2cccc(C(F)(F)F)c2=O)sc1C(=O)NCc1ccccc1` [Example 3.5, N-Benzyl-4-methyl-2-(2-oxo-3-(trifluoromethyl)pyridin-1(2H)-yl)thiazole-5-carboxamide], 150 nM; with `COc1ccn(-c2nc(C)c(C(=O)NCc3ccccc3)s2)c(=O)c1` [Example 1.2, N-Benzyl-2-(4-methoxy-2-oxopyridin-1(2H)-yl)-4-methylthiazole-5-carboxamide], 90 nM. Still for that read-out and setting: with `Cc1nc(-n2ccc(OCc3c(C)noc3C)cc2=O)sc1C(=O)NCc1ccccc1` [Example 21.13, N-benzyl-2-(4-((3,5-dimethylisoxazol-4-yl)methoxy)-2-oxopyridin-1(2H)-yl)-4-methylthiazole-5-carboxamide] the figure was 180 nM.

`Cc1nc(-n2ccc(O)cc2=O)sc1C(=O)NCc1ncco1` [Example 1.22, 2-(4-Hydroxy-2-oxopyridin-1(2H)-yl)-4-methyl-N-(oxazol-2-ylmethyl)thiazole-5-carboxamide] gave an IC50 of 430 nM. On the same count and under the same terms, under `Cc1nc(-n2ccc(OCc3ccccc3)cc2=O)sc1C(=O)NCc1ccc(Cl)nc1` [Example 22.19, 2-(4-(Benzyloxy)-2-oxopyridin-1(2H)-yl)-N-((6-chloropyridin-3-yl)methyl)-4-methylthiazole-5-carboxamide] stands 50 nM.

Usually melting point stands for the temperature of the solid-liquid transition. The IC50 is the point on the concentration scale where inhibition reaches its midpoint. The low end stands for higher potency, the high end for lower potency.
